# Reference: US12187721B2, “Protein tyrosine phosphatase inhibitors” (Array BioPharma Inc., priority 2018, dated 2025)
# Molecular target: T1, full-length SHP2 (His6-tagged SHP2(2-527)) (Homo sapiens, UniProt Q06124)
# T1 construct: His6-tagged SHP2(2-527); His6; made in house; host or cells: E. coli
# Assay: SHP2 Enzymatic Assay (fluorescence intensity kinetic assay, DiFMUP hydrolysis)
# Assay type: biochemical
# Procedure, shortened: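 1 nM His6-SHP2(2-527), activated by 1 μM bis-phosphopeptide, hydrolysed 50 μM DiFMUP in 25 mM HEPES pH 7.4 with 1 mM DTT, 50 mM KCl and 2% DMSO. DiFMU fluorescence (Ex 355/Em 460 nm) was read kinetically for 15 min at ambient temperature.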
# T1 sequence (Q06124 2-527): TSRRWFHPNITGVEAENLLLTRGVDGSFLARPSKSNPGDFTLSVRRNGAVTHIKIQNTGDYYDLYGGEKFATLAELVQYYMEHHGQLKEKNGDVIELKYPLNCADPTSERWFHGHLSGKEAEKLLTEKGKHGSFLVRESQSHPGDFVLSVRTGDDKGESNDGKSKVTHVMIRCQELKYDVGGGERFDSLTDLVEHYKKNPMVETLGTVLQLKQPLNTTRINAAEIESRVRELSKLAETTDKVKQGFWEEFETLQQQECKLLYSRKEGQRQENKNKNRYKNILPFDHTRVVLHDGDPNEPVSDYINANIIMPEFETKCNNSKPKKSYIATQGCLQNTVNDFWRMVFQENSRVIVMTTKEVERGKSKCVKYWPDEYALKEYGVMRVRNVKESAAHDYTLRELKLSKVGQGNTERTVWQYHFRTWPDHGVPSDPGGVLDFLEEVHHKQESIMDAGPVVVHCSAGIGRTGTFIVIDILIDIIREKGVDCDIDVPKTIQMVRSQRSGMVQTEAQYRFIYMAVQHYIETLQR
row,SMILES,IC50
1,"C[C@@H]1OCC2(CCN(c3cnc4nc(Sc5ccncc5C(F)(F)F)ccc4n3)CC2)[C@@H]1N [Example 188, (3S,4S)-3-methyl-8-(6-((3-(trifluoromethyl)pyridin-4-yl)thio)pyrido[2,3-b]pyrazin-2-yl)-2-oxa-8-azaspiro[4.5]decan-4-amine]",151 nM
2,"C[C@@H]1OCC2(CCN(c3cnc4nc(Sc5ccnc(C(F)(F)F)c5)ccc4n3)CC2)[C@@H]1N [Example 190, (3S,4S)-3-methyl-8-(6-((2-(trifluoromethyl)pyridin-4-yl)thio)pyrido[2,3-b]pyrazin-2-yl)-2-oxa-8-azaspiro[4.5]decan-4-amine]",3650 nM
3,"C[C@@H]1OCC2(CCN(c3cnc4nc(Sc5ccnc6c5ccn6C)ccc4n3)CC2)[C@@H]1N [Example 191, (3S,4S)-3-methyl-8-(6-((1-methyl-1H-pyrrolo[2,3-b]pyridin-4-yl)thio)pyrido[2,3-b]pyrazin-2-yl)-2-oxa-8-azaspiro[4.5]decan-4-amine]",134 nM
4,"C[C@@H]1OCC2(CCN(c3cnc4nc(Sc5c(Cl)cnc6[nH]ccc56)ccc4n3)CC2)[C@@H]1N [Example 192, (3S,4S)-8-(6-((5-chloro-1H-pyrrolo[2,3-b]pyridin-4-yl)thio)pyrido[2,3-b]pyrazin-2-yl)-3-methyl-2-oxa-8-azaspiro[4.5]decan-4-amine]",45 nM
5,"C[C@@H]1OCC2(CCN(c3cnc4nc(Sc5c(C(F)(F)F)cnc6[nH]ccc56)ccc4n3)CC2)[C@@H]1N [Example 193, (3S,4S)-3-methyl-8-(6-((5-(trifluoromethyl)-1H-pyrrolo[2,3-b]pyridin-4-yl)thio)pyrido[2,3-b]pyrazin-2-yl)-2-oxa-8-azaspiro[4.5]decan-4-amine]",138 nM
6,"COCCNc1nccc(Sc2ccc3nc(N4CCC(C)(N)CC4)cnc3n2)c1Cl [Example 194, 4-((2-(4-amino-4-methylpiperidin-1-yl)pyrido[2,3-b]pyrazin-6-yl)thio)-3-chloro-N-(2-methoxyethyl)pyridin-2-amine]",238 nM
7,"COCCCNc1nccc(Sc2ccc3nc(N4CCC(C)(N)CC4)cnc3n2)c1Cl [Example 195, 4-((2-(4-amino-4-methylpiperidin-1-yl)pyrido[2,3-b]pyrazin-6-yl)thio)-3-chloro-N-(3-methoxypropyl)pyridin-2-amine]",506 nM
8,"CC1(N)CCN(c2cnc3nc(Sc4ccnc5c4CCN5)ccc3n2)CC1 [Example 196, 1-(6-((2,3-dihydro-1H-pyrrolo[2,3-b]pyridin-4-yl)thio)pyrido[2,3-b]pyrazin-2-yl)-4-methylpiperidin-4-amine]",563 nM
9,"CC1(N)CCN(c2cnc3nc(Sc4ccnc5ncccc45)ccc3n2)CC1 [Example 197, 1-(6-((1,8-naphthyridin-4-yl)thio)pyrido[2,3-b]pyrazin-2-yl)-4-methylpiperidin-4-amine]",1510 nM
10,"Nc1nccc(Sc2ccc3nc(N4CCC(O)(CO)CC4)cnc3n2)c1Cl [Example 198, 1-(6-((2-amino-3-chloropyridin-4-yl)thio)pyrido[2,3-b]pyrazin-2-yl)-4-(hydroxymethyl)piperidin-4-ol]",3990 nM
11,"Nc1nccc(Sc2ccc3nc(N4C[C@H]5CC[C@@H](C4)[C@@H]5N)cnc3n2)c1Cl [Example 199, (1R,5S,8s)-3-(6-((2-amino-3-chloropyridin-4-yl)thio)pyrido[2,3-b]pyrazin-2-yl)-3-azabicyclo[3.2.1]octan-8-amine]",344 nM
12,"Nc1nccc(Sc2ccc3nc(N4CC5CCC(C4)N5)cnc3n2)c1Cl [Example 201, 4-((2-(3,8-diazabicyclo[3.2.1]octan-3-yl)pyrido[2,3-b]pyrazin-6-yl)thio)-3-chloropyridin-2-amine]",130 nM
13,"Nc1nccc(Sc2ccc3nc(N4CC5CCC4CNC5)cnc3n2)c1Cl (stereo not drawn) [Example 202, 4-((2-(3,6-diazabicyclo[3.2.2]nonan-6-yl)pyrido[2,3-b]pyrazin-6-yl)thio)-3-chloropyridin-2-amine]",132 nM
14,"Nc1nccc(Sc2ccc3nc(N4C[C@@H]5C[C@H]4CN5)cnc3n2)c1Cl [Example 203, 4-((2-((1S,4S)-2,5-diazabicyclo[2.2.1]heptan-2-yl)pyrido[2,3-b]pyrazin-6-yl)thio)-3-chloropyridin-2-amine]",142 nM
15,"Nc1nccc(Sc2ccc3nc(N4C5CCC4CNC5)cnc3n2)c1Cl [Example 204, 4-((2-(3,8-diazabicyclo[3.2.1]octan-8-yl)pyrido[2,3-b]pyrazin-6-yl)thio)-3-chloropyridin-2-amine]",47 nM
16,Nc1nccc(Sc2ccc3nc(N4C5CNCC4C5)cnc3n2)c1Cl [Example 205],114 nM
17,"Nc1nccc(Sc2ccc3nc(N4CC5CNCC(C4)O5)cnc3n2)c1Cl [Example 206, 4-((2-(9-oxa-3,7-diazabicyclo[3.3.1]nonan-3-yl)pyrido[2,3-b]pyrazin-6-yl)thio)-3-chloropyridin-2-amine]",2030 nM
18,"Nc1nccc(Sc2ccc3nc(N4CC5COCC(C4)N5)cnc3n2)c1Cl [Example 207, 4-((2-(3-oxa-7,9-diazabicyclo[3.3.1]nonan-7-yl)pyrido[2,3-b]pyrazin-6-yl)thio)-3-chloropyridin-2-amine]",730 nM
19,"Nc1nccc(Sc2ccc3nc(N4C[C@@H]5CC[C@H]4CN5)cnc3n2)c1Cl [Example 208, 4-((2-((1S,4S)-2,5-diazabicyclo[2.2.2]octan-2-yl)pyrido[2,3-b]pyrazin-6-yl)thio)-3-chloropyridin-2-amine]",67 nM
20,"N[C@@H]1c2cccnc2CC12CCN(c1cnc3nc(Sc4ccnc(N5CCC(O)CC5)c4Cl)ccc3n1)CC2 [Example 209, (S)-1-(4-((2-(5-amino-5,7-dihydrospiro[cyclopenta[b]pyridine-6,4′-piperidin]-1′-yl)pyrido[2,3-b]pyrazin-6-yl)thio)-3-chloropyridin-2-yl)piperidin-4-ol]",40 nM
21,"NCC1(F)CCN(c2cnc3nc(Sc4ccnc(N)c4Cl)ccc3n2)CC1 [Example 211, 4-((2-(4-(aminomethyl)-4-fluoropiperidin-1-yl)pyrido[2,3-b]pyrazin-6-yl)thio)-3-chloropyridin-2-amine]",54 nM
22,"NCC1(F)CCN(c2cnc3nc(Sc4cccc(Cl)c4Cl)ccc3n2)CC1 [Example 212, (1-(6-((2,3-dichlorophenyl)thio)pyrido[2,3-b]pyrazin-2-yl)-4-fluoropiperidin-4-yl)methanamine]",197 nM
23,"Nc1nccc(Sc2ccc3nc(N4[C@@H]5CC[C@H]4[C@@H](N)C5)cnc3n2)c1Cl [Example 213, (1S,2S,4R)-7-(6-((2-amino-3-chloropyridin-4-yl)thio)pyrido[2,3-b]pyrazin-2-yl)-7-azabicyclo[2.2.1]heptan-2-amine]",112 nM
24,"C[C@@H]1OCC2(CCN(c3cnc4nc(Sc5ccnc6[nH]ncc56)ccc4n3)CC2)[C@@H]1N [Example 214, (3S,4S)-8-(6-((1H-pyrazolo[3,4-b]pyridin-4-yl)thio)pyrido[2,3-b]pyrazin-2-yl)-3-methyl-2-oxa-8-azaspiro[4.5]decan-4-amine]",304 nM
25,"Nc1nccc(Sc2ccc3nc(N4CCO[C@@H]5CNC[C@H]54)cnc3n2)c1Cl [Example 215, 3-chloro-4-((2-((4aR,7aR)-hexahydropyrrolo[3,4-b][1,4]oxazin-4(4aH)-yl)pyrido[2,3-b]pyrazin-6-yl)thio)235yridine-2-amine]",780 nM
26,"C[C@H]1CC[C@H](N)CN1c1cnc2nc(Sc3ccnc(N)c3Cl)ccc2n1 [Example 216, 4-((2-((2S,5S)-5-amino-2-methylpiperidin-1-yl)pyrido[2,3-b]pyrazin-6-yl)thio)-3-chloropyridin-2-amine]",3080 nM
27,"C[C@@H]1OCC2(CCN(c3cnc4nc(Sc5ncnc(N)c5Cl)ccc4n3)CC2)[C@@H]1N [Example 217, (3S,4S)-8-(6-((6-amino-5-chloropyrimidin-4-yl)thio)pyrido[2,3-b]pyrazin-2-yl)-3-methyl-2-oxa-8-azaspiro[4.5]decan-4-amine]",845 nM
28,"COc1ccc2c(c1)[C@@H](N)C1(CCN(c3cnc4nc(Sc5ccnc(N)c5Cl)ccc4n3)CC1)C2 [Example 219, (S)-1′-(6-((2-amino-3-chloropyridin-4-yl)thio)pyrido[2,3-b]pyrazin-2-yl)-6-methoxy-1,3-dihydrospiro[indene-2,4′-piperidin]-1-amine]",4190 nM
29,"Nc1nccc(Sc2ccc3nc(N4CCC5(CC4)Cc4c(Cl)cccc4[C@@H]5N)cnc3n2)c1Cl [Example 220, (R)-1′-(6-((2-amino-3-chloropyridin-4-yl)thio)pyrido[2,3-b]pyrazin-2-yl)-4-chloro-1,3-dihydrospiro[indene-2,4′-piperidin]-1-amine]",96 nM
30,"C[C@@H]1OCC2(CCN(c3cnc4nc(Sc5cccnc5C(F)(F)F)ccc4n3)CC2)[C@@H]1N [Example 221, (3S,4S)-3-methyl-8-(6-((2-(trifluoromethyl)pyridin-3-yl)thio)pyrido[2,3-b]pyrazin-2-yl)-2-oxa-8-azaspiro[4.5]decan-4-amine]",183 nM
